# Test results reported in PMC11007962, “First-in-human study of GFH018, a small molecule inhibitor of transforming growth factor-β receptor I inhibitor, in patients with advanced solid tumors” (BMC Cancer, 2024).
# Marks after values point to notes of the source that are not given here.
# Test: Plasma pharmacokinetics (LC-MS/MS, noncompartmental analysis)
# Format: in vivo, human
# Experimental: For patients enrolled in the escalation part of the study, PK blood samples were collected at C1D1 predose; 0.5 h, 1 h, 2 h, 4 h, 8 h, and 12 h postdose; d 2 (24 h), d 3 (48 h), d 4 (72 h), and d 10 predose; d 17 (for 14 d-on/14 d-off regimen) or d 24 (for 7 d-on/7 d-off regimen) predose; and 0.5 h, 1 h, 2 h, 4 h, 8 h, and 12 h postdose. For patients enrolled in the expansion part, PK samples were collected predose on the last administration day and 0.5 h, 1 h, 2 h, 4 h, 8 h, and 12 h postdose on the last administration day. GFH018 levels in plasma samples were analyzed using a validated liquid chromatography-tandem mass spectrometry method. GFH018 PK parameters were determined using noncompartmental analysis methods and calculated using Phoenix WinNonlin Version 8.3.1 (Certara, Princeton, NJ, USA). GFH018 plasma concentrations and PK parameters were summarized descriptively according to the dose level.
# [1] = multiple dose, 5 mg BID 14d-on/14d-off (N=3)
# [2] = multiple dose, 10 mg BID 14d-on/14d-off (N=3)
# [3] = multiple dose, 20 mg BID 14d-on/14d-off (N=3)
# [4] = multiple dose, 30 mg BID 14d-on/14d-off (N=7)
# [5] = multiple dose, 40 mg BID 14d-on/14d-off (N=3)
# [6] = multiple dose, 50 mg BID 14d-on/14d-off (N=2)
# [7] = multiple dose, 65 mg BID 14d-on/14d-off (N=6)
# [8] = multiple dose, 85 mg BID 7d-on/7d-off (N=5)
# [9] = multiple dose, 85 mg BID 14d-on/14d-off (N=7), escalation and expansion parts combined
# [10] = single dose, 5 mg BID 14d-on/14d-off (N = 4)
# [11] = single dose, 10 mg BID 14d-on/14d-off (N = 3)
# [12] = single dose, 20 mg BID 14d-on/14d-off (N = 4)
# [13] = single dose, 30 mg BID 14d-on/14d-off (N = 7)
# [14] = single dose, 40 mg BID 14d-on/14d-off (N = 4)
# [15] = single dose, 50 mg BID 14d-on/14d-off (N = 4)
# [16] = single dose, 65 mg BID 14d-on/14d-off (N = 6)
# [17] = single dose, 85 mg BID 7d-on/7d-off (N = 6)
# [18] = single dose, 85 mg BID 14d-on/14d-off (N = 9), dose escalation part only
smiles,measurement,setting,value
Cc1cccc(-c2nn3c(c2-c2ccc4ncnn4c2/C=C/C(N)=O)CCC3)n1 [GFH018],PK linearity,5 – 85 mg,linear and dose-independent
same,mean half-life,5 – 85 mg (single and multiple dose),2.25 to 8.60 h
same,geometric CV% of exposure (Cmax and AUC) at the steady state,all cohorts,7.3–168.9%
same,"AUCtau, geometric mean (geometric CV)",[1],597 (61.1) h*ng/mL
same,"Cmax, geometric mean (geometric CV)",[1],165 (15.7) ng/mL
same,"Cmin, geometric mean (geometric CV)",[1],7.48 (208.2) ng/mL
same,"Racc (accumulation ratio calculated by AUC), geometric mean (geometric CV)",[1],1.02 (37.9)
same,"Tmax, median (minimum, maximum)",[1],"0.88 (0.42, 0.95) h"
same,"t1/2, geometric mean (geometric CV)",[1],2.67 (31.0) h
same,"AUCtau, geometric mean (geometric CV)",[2],997 (168.9) h*ng/mL
same,"Cmax, geometric mean (geometric CV)",[2],291 (124.9) ng/mL
same,"Cmin, geometric mean (geometric CV)",[2],15.8 (212.1) ng/mL
same,"Racc (accumulation ratio calculated by AUC), geometric mean (geometric CV)",[2],1.22 (40.3)
same,"Tmax, median (minimum, maximum)",[2],"0.92 (0.90, 1.27) h"
same,"t1/2, geometric mean (geometric CV)",[2],2.25 (26.5) h
same,"AUCtau, geometric mean (geometric CV)",[3],2056 (76.9) h*ng/mL
same,"Cmax, geometric mean (geometric CV)",[3],676 (48.0) ng/mL
same,"Cmin, geometric mean (geometric CV)",[3],25.5 (137.3) ng/mL
same,"Racc (accumulation ratio calculated by AUC), geometric mean (geometric CV)",[3],1.15 (17.4)
same,"Tmax, median (minimum, maximum)",[3],"0.93 (0.57, 1.08) h"
same,"t1/2, geometric mean (geometric CV)",[3],2.55 (24.6) h
same,"AUCtau, geometric mean (geometric CV)",[4],5605 (76.6) h*ng/mL
same,"Cmax, geometric mean (geometric CV)",[4],1167 (87.9) ng/mL
same,"Cmin, geometric mean (geometric CV)",[4],144 (107.2) ng/mL
same,"Racc (accumulation ratio calculated by AUC), geometric mean (geometric CV)",[4],1.32 (39.4)
same,"Tmax, median (minimum, maximum)",[4],"1.10 (0.47, 2.58) h"
same,"t1/2, geometric mean (geometric CV)",[4],4.09 (36.8) h
same,"AUCtau, geometric mean (geometric CV)",[5],5144 (30.3) h*ng/mL
same,"Cmax, geometric mean (geometric CV)",[5],1599 (33.7) ng/mL
same,"Cmin, geometric mean (geometric CV)",[5],21.0 (2741.3) ng/mL
same,"Racc (accumulation ratio calculated by AUC), geometric mean (geometric CV)",[5],1.18 (6.7)
same,"Tmax, median (minimum, maximum)",[5],"0.88 (0.38, 1.00) h"
same,"t1/2, geometric mean (geometric CV)",[5],2.45 (42.8) h
same,"AUCtau, geometric mean (geometric CV)",[6],4432 (43.6) h*ng/mL
same,"Cmax, geometric mean (geometric CV)",[6],1253 (7.3) ng/mL
same,"Cmin, geometric mean (geometric CV)",[6],91.4 (72.9) ng/mL
same,"Racc (accumulation ratio calculated by AUC), geometric mean (geometric CV)",[6],1.26 (9.2)
same,"Tmax, median (minimum, maximum)",[6],"0.75 (0.50, 1.00) h"
same,"t1/2, geometric mean (geometric CV)",[6],3.53 (3.1) h
same,"AUCtau, geometric mean (geometric CV)",[7],8189 (29.3) h*ng/mL
same,"Cmax, geometric mean (geometric CV)",[7],2303 (34.0) ng/mL
same,"Cmin, geometric mean (geometric CV)",[7],129 (51.8) ng/mL
same,"Racc (accumulation ratio calculated by AUC), geometric mean (geometric CV)",[7],1.17 (25.3)
same,"Tmax, median (minimum, maximum)",[7],"1.88 (0.50, 2.00) h"
same,"t1/2, geometric mean (geometric CV)",[7],2.59 (9.6) h
same,"AUCtau, geometric mean (geometric CV)",[8],7732 (46.8) h*ng/mL
same,"Cmax, geometric mean (geometric CV)",[8],2193 (29.1) ng/mL
same,"Cmin, geometric mean (geometric CV)",[8],115 (92.5) ng/mL
same,"Racc (accumulation ratio calculated by AUC), geometric mean (geometric CV)",[8],1.04 (32.5)
same,"Tmax, median (minimum, maximum)",[8],"0.50 (0.50, 1.00) h"
same,"t1/2, geometric mean (geometric CV)",[8],2.92 (18.3) h
same,"AUCtau, geometric mean (geometric CV)",[9],11353 (27.9) h*ng/mL
same,"Cmax, geometric mean (geometric CV)",[9],3034 (33.6) ng/mL
same,"Cmin, geometric mean (geometric CV)",[9],164 (54.3) ng/mL
same,"Tmax, median (minimum, maximum)",[9],"0.50 (0.50, 2.05) h"
same,"Racc (accumulation ratio calculated by AUC), geometric mean (geometric CV)","multiple dose, 85 mg BID 14d-on/14d-off (N=7), n=5 for Racc",1.18 (24.1)^e
same,"t1/2, geometric mean (geometric CV)","multiple dose, 85 mg BID 14d-on/14d-off (N=7), n=5 for t1/2",3.01 (20.0)^d h
same,"geometric mean accumulation ratio (Racc, by AUC) across all dose groups",multiple doses,1.02–1.32
same,increase of exposure with dose,"multiple doses / overall, 5–85 mg",increased in an approximately proportional manner
same,accumulation,"multiple doses, any cohort",No obvious accumulation
same,absorption after oral administration,oral,rapidly absorbed
same,increase of plasma exposure (AUC0-t and Cmax) with dose,"single dose, 5–85 mg",increased in an approximately proportional manner
same,"AUC0-12, geometric mean (geometric CV)",[10],690 (51.3) h*ng/mL
same,"AUC0-inf, geometric mean (geometric CV)",[10],769 (58.3) h*ng/mL
same,"AUC0-t, geometric mean (geometric CV)",[10],754 (58.4) h*ng/mL
same,"Cmax, geometric mean (geometric CV)",[10],215 (50.2) ng/mL
same,"Tmax, median (minimum, maximum)",[10],"0.65 (0.40, 0.97) h"
same,"t1/2, geometric mean (geometric CV)",[10],4.42 (82.9) h
same,"AUC0-12, geometric mean (geometric CV)",[11],819 (99.0) h*ng/mL
same,"AUC0-inf, geometric mean (geometric CV)",[11],864 (110.5) h*ng/mL
same,"AUC0-t, geometric mean (geometric CV)",[11],852 (111.3) h*ng/mL
same,"Cmax, geometric mean (geometric CV)",[11],250 (72.2) ng/mL
same,"Tmax, median (minimum, maximum)",[11],"0.88 (0.42, 0.93) h"
same,"t1/2, geometric mean (geometric CV)",[11],3.11 (106.3) h
same,"AUC0-12, geometric mean (geometric CV)",[12],2551 (107.3) h*ng/mL
same,"AUC0-inf, geometric mean (geometric CV)",[12],2825 (123.9) h*ng/mL
same,"AUC0-t, geometric mean (geometric CV)",[12],2802 (123.7) h*ng/mL
same,"Cmax, geometric mean (geometric CV)",[12],743 (65.1) ng/mL
same,"Tmax, median (minimum, maximum)",[12],"0.49 (0.43, 1.03) h"
same,"t1/2, geometric mean (geometric CV)",[12],4.90 (115.1) h
same,"AUC0-12, geometric mean (geometric CV)",[13],4250 (50.4) h*ng/mL
same,"AUC0-inf, geometric mean (geometric CV)",[13],4926 (47.8) h*ng/mL
same,"AUC0-t, geometric mean (geometric CV)",[13],4895 (48.2) h*ng/mL
same,"Cmax, geometric mean (geometric CV)",[13],972 (82.7) ng/mL
same,"Tmax, median (minimum, maximum)",[13],"0.95 (0.37, 3.80) h"
same,"t1/2, geometric mean (geometric CV)",[13],5.74 (37.6) h
same,"AUC0-12, geometric mean (geometric CV)",[14],4147 (30.3) h*ng/mL
same,"AUC0-inf, geometric mean (geometric CV)",[14],4603 (35.2) h*ng/mL
same,"AUC0-t, geometric mean (geometric CV)",[14],4561 (35.3) h*ng/mL
same,"Cmax, geometric mean (geometric CV)",[14],1180 (24.7) ng/mL
same,"Tmax, median (minimum, maximum)",[14],"0.69 (0.37, 0.90) h"
same,"t1/2, geometric mean (geometric CV)","single dose, 40 mg BID 14d-on/14d-off (N = 4), n=3 for t1/2",8.60 (103.8)^b h
same,"AUC0-12, geometric mean (geometric CV)",[15],5100 (57.9) h*ng/mL
same,"AUC0-inf, geometric mean (geometric CV)",[15],5906 (49.3) h*ng/mL
same,"AUC0-t, geometric mean (geometric CV)",[15],5858 (50.2) h*ng/mL
same,"Cmax, geometric mean (geometric CV)",[15],1209 (85.4) ng/mL
same,"Tmax, median (minimum, maximum)",[15],"0.96 (0.47, 1.92) h"
same,"t1/2, geometric mean (geometric CV)",[15],5.93 (51.2) h
same,"AUC0-12, geometric mean (geometric CV)",[16],7028 (10.9) h*ng/mL
same,"AUC0-inf, geometric mean (geometric CV)",[16],7870 (17.9) h*ng/mL
same,"AUC0-t, geometric mean (geometric CV)",[16],7831 (17.8) h*ng/mL
same,"Cmax, geometric mean (geometric CV)",[16],2172 (16.3) ng/mL
same,"Tmax, median (minimum, maximum)",[16],"0.68 (0.48, 2.00) h"
same,"t1/2, geometric mean (geometric CV)",[16],5.51 (34.3) h
same,"AUC0-12, geometric mean (geometric CV)",[17],7455 (27.3) h*ng/mL
same,"AUC0-inf, geometric mean (geometric CV)",[17],8284 (28.1) h*ng/mL
same,"AUC0-t, geometric mean (geometric CV)",[17],8240 (27.9) h*ng/mL
same,"Cmax, geometric mean (geometric CV)",[17],2555 (29.9) ng/mL
same,"Tmax, median (minimum, maximum)",[17],"0.50 (0.50, 1.10) h"
same,"t1/2, geometric mean (geometric CV)",[17],7.45 (61.8) h
same,"AUC0-12, geometric mean (geometric CV)",[18],10074 (42.0) h*ng/mL
same,"AUC0-inf, geometric mean (geometric CV)",[18],11164 (45.4) h*ng/mL
same,"AUC0-t, geometric mean (geometric CV)",[18],11119 (45.5) h*ng/mL
same,"Cmax, geometric mean (geometric CV)",[18],3225 (35.5) ng/mL
same,"Tmax, median (minimum, maximum)",[18],"0.58 (0.45, 1.12) h"
same,"t1/2, geometric mean (geometric CV)",[18],6.37 (41.6) h
